Assay results published in BindingDB's records for doi:10.1021/acsmedchemlett.8b00149 (Merck, 2018).

Target: Free fatty acid receptor 1 (Homo sapiens, UniProt O14842)
Experiment: Agonist activity at recombinant human GPR40 expressed in HEK293 cells assessed as increase in IP1 accumulation measured after 60 mins by HTRF assay

Free fatty acid receptor 1, sequence (O14842 whole entry): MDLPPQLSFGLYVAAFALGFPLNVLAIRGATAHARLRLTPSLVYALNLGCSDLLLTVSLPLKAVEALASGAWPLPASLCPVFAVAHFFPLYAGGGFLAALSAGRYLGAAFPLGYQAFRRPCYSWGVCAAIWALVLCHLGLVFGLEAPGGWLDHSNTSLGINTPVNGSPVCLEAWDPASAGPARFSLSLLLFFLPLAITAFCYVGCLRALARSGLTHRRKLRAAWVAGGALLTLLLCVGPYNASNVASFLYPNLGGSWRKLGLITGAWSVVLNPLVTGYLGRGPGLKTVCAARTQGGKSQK

COc1cc(-c2cnc(C3CCc4ccc([C@H](C5CC5)[C@H](C)C(=O)O)cc4O3)c(F)c2)c(F)cn1 (stereo partly specified)
EC50: 1.6 nM
